BindingDB's records for PubMed 8078486 (Eli Lilly, 1994)

Assays:
[1] = molecular target: 5-hydroxytryptamine receptor 2B (Homo sapiens, UniProt P41595)
[2] = molecular target: 5-hydroxytryptamine receptor 2B (Rattus norvegicus, UniProt P30994)
Sequence of 5-hydroxytryptamine receptor 2B (Rattus norvegicus, UniProt P30994) (P30994 whole entry): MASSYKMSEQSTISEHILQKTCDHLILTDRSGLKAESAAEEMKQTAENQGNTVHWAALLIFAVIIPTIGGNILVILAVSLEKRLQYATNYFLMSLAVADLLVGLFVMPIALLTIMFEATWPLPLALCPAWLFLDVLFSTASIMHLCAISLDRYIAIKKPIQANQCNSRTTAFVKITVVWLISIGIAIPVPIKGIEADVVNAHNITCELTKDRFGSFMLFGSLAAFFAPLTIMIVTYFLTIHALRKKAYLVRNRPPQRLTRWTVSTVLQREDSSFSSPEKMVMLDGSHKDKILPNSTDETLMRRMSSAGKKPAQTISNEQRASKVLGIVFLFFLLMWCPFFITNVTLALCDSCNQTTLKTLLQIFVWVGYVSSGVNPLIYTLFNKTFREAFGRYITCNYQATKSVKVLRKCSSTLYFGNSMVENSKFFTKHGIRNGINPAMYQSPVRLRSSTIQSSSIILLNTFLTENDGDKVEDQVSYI

Sequence of 5-hydroxytryptamine receptor 2B (Homo sapiens, UniProt P41595) (P41595 whole entry): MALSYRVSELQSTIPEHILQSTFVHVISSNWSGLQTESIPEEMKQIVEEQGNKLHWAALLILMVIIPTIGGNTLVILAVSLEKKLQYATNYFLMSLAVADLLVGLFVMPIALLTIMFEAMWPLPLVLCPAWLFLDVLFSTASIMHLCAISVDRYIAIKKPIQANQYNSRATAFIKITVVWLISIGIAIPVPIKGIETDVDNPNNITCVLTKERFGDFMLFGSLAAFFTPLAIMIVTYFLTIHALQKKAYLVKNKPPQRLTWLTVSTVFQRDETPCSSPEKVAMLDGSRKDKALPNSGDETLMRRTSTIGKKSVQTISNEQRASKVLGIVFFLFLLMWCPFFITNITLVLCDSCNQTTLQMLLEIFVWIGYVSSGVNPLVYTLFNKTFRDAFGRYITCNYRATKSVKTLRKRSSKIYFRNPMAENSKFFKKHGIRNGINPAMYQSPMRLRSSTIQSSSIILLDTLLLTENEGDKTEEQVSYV

Row | SMILES | Ki [1] [nM] | Ki [2] [nM]
1 | COc1cc(CC(C)N)c(OC)cc1I (centres undefined) [[125I]2,5-dimethoxy-4-iodoamphetamine] | 19.9 | 26.6
2 | Cn1cc(CCN)c2cc(O)ccc21 [5-HT,omega-N-Me] | 11.9 | –
3 | O=C(CCCN1CCC2(CC1)C(=O)NCN2c1ccccc1)c1ccc(F)cc1 [8-[4-(4-fluorophenyl)-4-oxidanylidene-butyl]-1-phenyl-1,3,8-triazaspiro[4.5]decan-4-one] | 697 | –
